Measured values reported in patent US12064443B2 (priority 2021, dated 2024).

Columns and labels:
[1] = cited from earlier work
[2] = system: Cholera toxin (CTx) challenge; settings: mouse, in vivo

Compound | Solubility in water [1] | Effect on volume of intestinal secretion upon CTx challenge [2]
Sucralfate | poorly soluble | neither polyphenol nor sucralfate reduced the volume of intestinal secretion
O=S(=O)([O-])OC[C@H]1O[C@@](COS(=O)(=O)[O-])(O[C@H]2O[C@H](COS(=O)(=O)[O-])[C@@H](OS(=O)(=O)[O-])[C@H](OS(=O)(=O)[O-])[C@H]2OS(=O)(=O)[O-])[C@@H](OS(=O)(=O)[O-])[C@@H]1OS(=O)(=O)[O-].[K+].[K+].[K+].[K+].[K+].[K+].[K+].[K+] [Sucrose octasulfate-potassium salt] | freely soluble | 
